From US20240336568A1, “SELECTIVE PHD1 INHIBITOR COMPOUNDS, COMPOSITIONS, AND METHODS OF USE” (Akebia Therapeutics, Inc., priority 2021, published 2024)

The molecules below were run on full-length human prolyl-4-hydroxylase domain (PHD) enzymes, PHD1 and PHD2 (assay: TR-FRET assay, selectivity of compounds for PHD1 over PHD2 (ratio of Kis calculated from IC50s)). Conditions: ratio of Kis (PHD2 Ki/PHD1 Ki), Kis calculated from TR-FRET IC50s by Cheng Prussoff equation; 1 uM 2-OG.
Assay type: biochemical
Excerpt: Time-resolved fluorescence resonance energy transfer (TR-FRET) assay was utilized to determine the enzymatic half maximal inhibitory concentration (IC50) value of PHD inhibitors against the full-length human prolyl-4-hydroxylase domain (PHD) enzymes, PHD1 and PHD2. The TR-FRET assay was developed based on the specific binding of hydroxylated HIF-la peptide with the complex formed by VHL, EloB and EloC (VBC), to generate a fluorescent signal. Terbium (Tb)-Donor (monoclonal antibody anti-6His-Tb-cryptate Gold) and D2-acceptor (streptavidin [SA]-D2) of TR-FRET are linked to the VBC complex and to HIF-1α peptide, respectively. The VBC complex binds specifically to the HIF-1α peptide when it is hydroxylated, allowing energy transfer from TR-FRET donor to acceptor (FIG. 1).
TR-FRET Reagents. Monoclonal antibody anti-6His-Tb-cryptate Gold (catalog #61HI2TLA) and streptavidin (SA)-D2 (catalog #610SADLA) were purchased from CisBio International (Bedford, MA, USA).
N-terminus biotinylated HIF-1α C35 synthetic peptide representing amino acids 547 to 581 and including the proline 564 PHD2 hydroxylation site was purchased from California Peptide Research (Salt Lake City, UT, USA).
VBC Complex. His-tagged recombinant VHL protein, EloB, EloC complex (His-VBC) was supplied by Axxam (Milan, Italy). Recombinant human VHL (National Center for Biotechnology Information [NCBI] accession number NP_00542.1) contained a His tag at the C-terminus of amino acids 55 to 213 and is referred to as VHL-His. VHL-His was co-expressed in E. coli with full-length human EloB (NCBI accession number Q15370.1) and full-length human EloC (NCBI accession number Q15369.1) and purified by affinity chromatography on a nickel-nitrilotriacetic acid (Ni-NTA) column as the His-VBC complex. Purity (˜80%) was assessed by sodium dodecyl sulfate polyacrylamide gel electrophoresis (SDS-PAGE).
PHD1. Recombinant human PHD1 protein (catalog #81064, Lot #24717001) was purchased from Active Motif (Carlsbad, CA, USA). PHD1 was expressed in a baculovirus expression system as the full-length protein (NCBI accession number NP_542770.2) with an N-terminal FLAG tag (molecular weight 44.9 kDa). Purity (>90%) was assessed by SDS-PAGE.
PHD2. The full-length human PHD2 enzyme was produced with a baculovirus infected insect cell (BIIC) expression system by Beryllium (Bedford, MA, USA). The PHD2 construct contained amino acids 1 to 426 of PHD2 (UniProt Knowledgebase[UniProtKB]/Swiss-Prot accession number Q9GZT9.1), and a His tag and a Tobacco Etch Virus (TEV) protease cleavage site at the N-terminus. The construct was expressed in Sf9 insect cells, purified by Ni-NTA column and digested with TEV protease to remove the His tag.
Compounds were preincubated with PHD enzyme in a 10 μL reaction volume in white 384-well Optiplate microplates (catalog #6007290, Perkin Elmer, Waltham, MA, USA). For this, 5 μL compound was serially diluted with dilution buffer (50 mM HEPES [4-(2-hydroxyethyl)-1-piperazineethanesulfonic acid] pH 7.5, 50 mM sodium chloride [NaCl], 0.01% Tween-20, 0.01% purified bovine serum albumin [BSA]) and mixed with 5 μL PHD enzyme mix prepared as a 4× concentrate in the dilution buffer containing PHD enzyme (60 nM PHD1, 20 nM PHD2, 140 nM PHD3), 40 μM ferrous ammonium sulfate (FAS), 4 mM sodium (Na) ascorbate. The plates were incubated for 30 minutes at room temperature without rotation.
Five microliters of the VBC/anti-6His-Tb-cryptate Gold mix prepared as a 4× concentrate in dilution buffer containing 20 nM His-VBC, 1.32 nM monoclonal antibody anti-6His-Tb-cryptate Gold was then added. This step was followed immediately by the addition of 5 μL of the HIF-1α C35 substrate mix prepared as a 4× concentrate in the dilution buffer containing 120 nM biotin-labeled HIF-1α C35, 132 nM SA-D2, 4 μM 2-oxoglutarate (2-OG) to reach a final reaction volume of 20 μL. […]

Compound | Selectivity of PHD1 over PHD2
CC(C)(CNC(=O)c1ncc(-c2cccc(OCc3ccc(Cl)cc3)c2)cc1O)C(=O)O [compound 22, 3-(5-(3-((4-chlorobenzyl)oxy)phenyl)-3-hydroxypicolinamido)-2,2-dimethylpropanoic acid] | ~261 fold
CC(C)(CNC(=O)c1ncc(-c2cccc(O)c2)cc1O)C(=O)O [compound 21, 3-(3-hydroxy-5-(3-hydroxyphenyl)picolinamido)-2,2-dimethylpropanoic acid] | ~1494 fold
CC(C)(CNC(=O)c1ncc(-c2cccc3ccccc23)cc1O)C(=O)O [compound 20, 3-(3-hydroxy-5-(naphthalen-1-yl)picolinamido)-2,2-dimethylpropanoic acid] | ~159 fold
CC(C)(CNC(=O)c1ncc(-c2cccc(Nc3ccc(Cl)cc3)c2)cc1O)C(=O)O [compound 25, 3-(5-(3-((4-chlorophenyl)amino)phenyl)-3-hydroxypicolinamido)-2,2-dimethylpropanoic acid] | ~213 fold
CC(C)(CNC(=O)c1ncc(-c2cc3nc(Cl)ccc3s2)cc1O)C(=O)O [compound 35, 3-(5-(5-chlorothieno[3,2-b]pyridin-2-yl)-3-hydroxypicolinamido)-2,2-dimethylpropanoic acid] | ~271 fold
CC(C)(CNC(=O)c1ncc(-c2ccc3cc(O)ccc3c2)cc1O)C(=O)O [compound 23, 3-(3-hydroxy-5-(6-hydroxynaphthalen-2-yl)picolinamido)-2,2-dimethylpropanoic acid] | ~113 fold
CC(C)(C)OC(=O)N1CCc2sc(-c3cnc(C(=O)NCC(C)(C)C(=O)O)c(O)c3)cc2C1 [compound 33, 3-(5-(5-(tert-butoxycarbonyl)-4,5,6,7-tetrahydrothieno[3,2-c]pyridin-2-yl)-3-hydroxypicolinamido)-2,2-dimethylpropanoic acid] | ~1605 fold
CC(C)(CNC(=O)c1ncc(-c2ccc3cc(OCCc4ccc(Cl)cc4)ccc3c2)cc1O)C(=O)O [compound 28, 3-(5-(6-(4-chlorophenethoxy)naphthalen-2-yl)-3-hydroxypicolinamido)-2,2-dimethylpropanoic acid] | ~9 fold
CC(C)(CNC(=O)c1ncc(-c2ccc3cc(Oc4ccc(Cl)cc4)ccc3c2)cc1O)C(=O)O [compound 26, 3-(5-(6-(4-chlorophenoxy)naphthalen-2-yl)-3-hydroxypicolinamido)-2,2-dimethylpropanoic acid] | ~31 fold
CC(C)c1ccc2sc(-c3cnc(C(=O)NCC(C)(C)C(=O)O)c(O)c3)cc2c1 [compound 61, 3-(3-hydroxy-5-(5-isopropylbenzo[b]thiophen-2-yl)picolinamido)-2,2-dimethylpropanoic acid] | ~341 fold
O=C(O)CCNC(=O)c1ncc(-c2cccc(Cl)c2)cc1O [compound 5, 3-(5-(3-chlorophenyl)-3-hydroxypicolinamido)propanoic acid] | ~12 fold
C[C@H](CC(=O)O)NC(=O)c1ncc(-c2cccc(Cl)c2)cc1O [compound 3, (R)-3-(5-(3-chlorophenyl)-3-hydroxypicolinamido)butanoic acid] | ~17 fold
CC(C)(C)OC(=O)N1CCC(n2cc(-c3cnc(C(=O)NCC(C)(C)C(=O)O)c(O)c3)cn2)CC1 [compound 32, 3-(5-(1-(1-(tert-butoxycarbonyl)piperidin-4-yl)-1H-pyrazol-4-yl)-3-hydroxypicolinamido)-2,2-dimethylpropanoic acid] | ~444 fold
CC(C)(CNC(=O)c1ncc(-c2cccc(Cl)c2)cc1O)C(=O)O [compound 4, 3-(5-(3-chlorophenyl)-3-hydroxypicolinamido)-2,2-dimethylpropanoic acid] | ~1187 fold
CC(C)(CNC(=O)c1ncc(-c2cccc(Oc3ccccc3)c2)cc1O)C(=O)O [compound 8, 3-(3-hydroxy-5-(3-phenoxyphenyl)picolinamido)-2,2-dimethylpropanoic acid] | ~219 fold
Cc1ncc(-c2cnc(C(=O)NCC(C)(C)C(=O)O)c(O)c2)s1 [compound 14, 3-(3-hydroxy-5-(2-methylthiazol-5-yl)picolinamido)-2,2-dimethylpropanoic acid] | ~15 fold
Cc1ccnc2ccc(-c3cnc(C(=O)NCC(C)(C)C(=O)O)c(O)c3)cc12 [compound 39, 3-(3-hydroxy-5-(4-methylquinolin-6-yl)picolinamido)-2,2-dimethylpropanoic acid] | ~230 fold
CC(C)(CNC(=O)c1ncc(-c2cccc(COc3cccc4ccccc34)c2)cc1O)C(=O)O [compound 18, 3-(3-hydroxy-5-(3-((naphthalen-1-yloxy)methyl)phenyl)picolinamido)-2,2-dimethylpropanoic acid] | ~885 fold
CC(C)(CNC(=O)c1nc(C#N)c(-c2cccc(Cl)c2)cc1O)C(=O)O [compound 51, 3-(5-(3-chlorophenyl)-6-cyano-3-hydroxypicolinamido)-2,2-dimethylpropanoic acid] | ~4 fold
CC(CNC(=O)c1ncc(-c2cccc(Cl)c2)cc1O)C(=O)O (stereo not shown) [compound 49, 3-(5-(3-chlorophenyl)-3-hydroxypicolinamido)-2-methylpropanoic acid] | ~12 fold
CC(C)(CNC(=O)c1ncc(-c2cn(CCCc3ccc(Cl)cc3)nn2)cc1O)C(=O)O [compound 47, 3-(5-(1-(3-(4-chlorophenyl)propyl)-1H-1,2,3-triazol-4-yl)-3-hydroxypicolinamido)-2,2-dimethylpropanoic acid] | ~10 fold
COc1cc2c(-c3cnc(C(=O)NCC(C)(C)C(=O)O)c(O)c3)cn(C)c2cn1 [compound 55, 3-(3-hydroxy-5-(5-methoxy-1-methyl-1H-pyrrolo[2,3-c]pyridin-3-yl)picolinamido)-2,2-dimethylpropanoic acid] | ~96 fold
Cc1ccc2cc(-c3cnc(C(=O)NCC(C)(C)C(=O)O)c(O)c3)ccc2n1 [compound 45, 3-(3-hydroxy-5-(2-methylquinolin-6-yl)picolinamido)-2,2-dimethylpropanoic acid] | ~3740 fold
CC(C)(CNC(=O)c1ncc(-c2cccc(COc3ccc(OC(F)(F)F)cc3)c2)cc1O)C(=O)O [compound 16, 3-(3-hydroxy-5-(3-((4-(trifluoromethoxy)phenoxy)methyl)phenyl)picolinamido)-2,2-dimethylpropanoic acid] | ~53 fold
CC(CNC(=O)c1ncc(-c2ccc3ccccc3c2)cc1O)C(=O)O (stereo not shown) [compound 48, 3-(3-Hydroxy-5-(naphthalen-2-yl)picolinamido)-2-methylpropanoic acid] | ~167 fold
